Data from PubChem BioAssay (NCI).
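Dose response: 5 concentrations. Exposure: 48 h. Format: 96-well plates. Endpoint: linear interpolation; highest concentration if not reached. GI50 marks 50% less growth. TGI: concentration producing complete growth inhibition.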

Assays:
Assay in all cases: inhibition of tumour cell growth, NCI panel, 48 h
PC-3 prostate = tested on: PC-3 prostate
HL-60(TB) leukemia = tested on: HL-60(TB) leukemia
CCRF-CEM leukemia = tested on: CCRF-CEM leukemia
A498 renal = tested on: A498 renal
HOP-92 NSCLC = tested on: HOP-92 NSCLC
HCT-116 colon = tested on: HCT-116 colon
SK-MEL-28 melanoma = tested on: SK-MEL-28 melanoma
A549 NSCLC = tested on: A549 NSCLC
UO-31 renal = tested on: UO-31 renal
MDA-MB-435 = tested on: MDA-MB-435
LOX IMVI melanoma = tested on: LOX IMVI melanoma
ACHN renal = tested on: ACHN renal
DU-145 prostate = tested on: DU-145 prostate
MOLT-4 leukemia = tested on: MOLT-4 leukemia
786-0 renal = tested on: 786-0 renal
MALME-3M melanoma = tested on: MALME-3M melanoma
M14 melanoma = tested on: M14 melanoma
SR leukemia = tested on: SR leukemia
HCC-2998 colon = tested on: HCC-2998 colon
RPMI-8226 leukemia = tested on: RPMI-8226 leukemia
SK-OV-3 ovarian = tested on: SK-OV-3 ovarian
IGROV1 ovarian = tested on: IGROV1 ovarian
U251 CNS = tested on: U251 CNS
NCI-H226 lung = tested on: NCI-H226 lung
K-562 leukemia = tested on: K-562 leukemia
NCI-H460 lung = tested on: NCI-H460 lung
SF-295 CNS = tested on: SF-295 CNS
SNB-75 CNS = tested on: SNB-75 CNS
SN12C renal = tested on: SN12C renal
CAKI-1 renal = tested on: CAKI-1 renal
NCI-H23 lung = tested on: NCI-H23 lung
HT29 colon = tested on: HT29 colon
SF-539 CNS = tested on: SF-539 CNS
OVCAR-8 ovarian = tested on: OVCAR-8 ovarian
SW-620 colon = tested on: SW-620 colon
NCI/ADR-RES ovarian = tested on: NCI/ADR-RES ovarian
SNB-19 CNS = tested on: SNB-19 CNS
UACC-257 melanoma = tested on: UACC-257 melanoma
COLO 205 colon = tested on: COLO 205 colon
TK-10 renal = tested on: TK-10 renal
HCT-15 colon = tested on: HCT-15 colon
BT-549 breast = tested on: BT-549 breast
HS 578T breast = tested on: HS 578T breast
NCI-H522 lung = tested on: NCI-H522 lung
EKVX NSCLC = tested on: EKVX NSCLC
T-47D breast = tested on: T-47D breast
SK-MEL-2 melanoma = tested on: SK-MEL-2 melanoma
RXF 393 renal = tested on: RXF 393 renal
OVCAR-3 ovarian = tested on: OVCAR-3 ovarian
SK-MEL-5 melanoma = tested on: SK-MEL-5 melanoma
MDA-MB-231 breast = tested on: MDA-MB-231 breast
HOP-62 NSCLC = tested on: HOP-62 NSCLC
OVCAR-5 ovarian = tested on: OVCAR-5 ovarian
UACC-62 melanoma = tested on: UACC-62 melanoma
MCF7 breast = tested on: MCF7 breast
KM12 colon = tested on: KM12 colon
SF-268 CNS = tested on: SF-268 CNS
OVCAR-4 ovarian = tested on: OVCAR-4 ovarian

Question: How did the GI50 (PC-3 prostate) turn out when `CN1CCN(Cc2ccc(NC(=O)c3cncc(C#Cc4cnc5ccc(O[C@H]6CCOC6)nn45)c3)cc2C(F)(F)F)CC1` was run?
Answer: 720 nM

Question: And the TGI (PC-3 prostate)?
Answer: 2280 nM

Question: And the GI50 (HL-60(TB) leukemia)?
Answer: 194 nM

Question: And the TGI (HL-60(TB) leukemia)?
Answer: 692 nM

Question: What about the GI50 (CCRF-CEM leukemia) of the same molecule?
Answer: 305 nM

Question: What about the TGI (CCRF-CEM leukemia) of the same molecule?
Answer: 4.76 µM

Question: And the GI50 (A498 renal)?
Answer: 871 nM

Question: And the TGI (A498 renal)?
Answer: 1590 nM

Question: And the GI50 (HOP-92 NSCLC)?
Answer: 55.1 nM

Question: What about the TGI (HOP-92 NSCLC) of the same molecule?
Answer: 275 nM

Question: And the GI50 (HCT-116 colon)?
Answer: 45.6 nM

Question: What about the TGI (HCT-116 colon) of the same molecule?
Answer: 212 nM

Question: What about the GI50 (SK-MEL-28 melanoma) of the same molecule?
Answer: 410 nM

Question: What about the TGI (SK-MEL-28 melanoma) of the same molecule?
Answer: 1110 nM

Question: What about the GI50 (A549 NSCLC) of the same molecule?
Answer: 475 nM

Question: What about the TGI (A549 NSCLC) of the same molecule?
Answer: 1450 nM

Question: And the GI50 (UO-31 renal)?
Answer: 270 nM

Question: What about the TGI (UO-31 renal) of the same molecule?
Answer: 853 nM

Question: And the GI50 (MDA-MB-435)?
Answer: 159 nM

Question: And the TGI (MDA-MB-435)?
Answer: 705 nM

Question: What about the GI50 (LOX IMVI melanoma) of the same molecule?
Answer: 186 nM

Question: And the TGI (LOX IMVI melanoma)?
Answer: 743 nM

Question: What about the GI50 (ACHN renal) of the same molecule?
Answer: 396 nM

Question: And the TGI (ACHN renal)?
Answer: 1040 nM

Question: What about the GI50 (DU-145 prostate) of the same molecule?
Answer: 521 nM

Question: And the TGI (DU-145 prostate)?
Answer: 1180 nM

Question: And the GI50 (MOLT-4 leukemia)?
Answer: 289 nM

Question: And the TGI (MOLT-4 leukemia)?
Answer: 2720 nM

Question: What about the GI50 (786-0 renal) of the same molecule?
Answer: 187 nM

Question: What about the TGI (786-0 renal) of the same molecule?
Answer: 397 nM

Question: What about the GI50 (MALME-3M melanoma) of the same molecule?
Answer: 97.6 nM

Question: What about the TGI (MALME-3M melanoma) of the same molecule?
Answer: 438 nM

Question: What about the GI50 (M14 melanoma) of the same molecule?
Answer: 97.5 nM

Question: And the TGI (M14 melanoma)?
Answer: 280 nM

Question: What about the GI50 (SR leukemia) of the same molecule?
Answer: 284 nM

Question: What about the TGI (SR leukemia) of the same molecule?
Answer: 1440 nM

Question: And the GI50 (HCC-2998 colon)?
Answer: 341 nM

Question: And the TGI (HCC-2998 colon)?
Answer: 964 nM

Question: And the GI50 (RPMI-8226 leukemia)?
Answer: 815 nM

Question: What about the TGI (RPMI-8226 leukemia) of the same molecule?
Answer: 2740 nM

Question: And the GI50 (SK-OV-3 ovarian)?
Answer: 848 nM

Question: And the TGI (SK-OV-3 ovarian)?
Answer: 1760 nM

Question: What about the GI50 (IGROV1 ovarian) of the same molecule?
Answer: 177 nM

Question: And the TGI (IGROV1 ovarian)?
Answer: 818 nM

Question: And the GI50 (U251 CNS)?
Answer: 575 nM

Question: And the TGI (U251 CNS)?
Answer: 1280 nM

Question: What about the GI50 (NCI-H226 lung) of the same molecule?
Answer: 123 nM

Question: And the TGI (NCI-H226 lung)?
Answer: 1040 nM

Question: What about the GI50 (K-562 leukemia) of the same molecule?
Answer: 5 nM

Question: What about the TGI (K-562 leukemia) of the same molecule?
Answer: 544 nM

Question: And the GI50 (NCI-H460 lung)?
Answer: 341 nM

Question: What about the TGI (NCI-H460 lung) of the same molecule?
Answer: 962 nM

Question: And the GI50 (SF-295 CNS)?
Answer: 748 nM

Question: What about the TGI (SF-295 CNS) of the same molecule?
Answer: 1510 nM

Question: And the GI50 (SNB-75 CNS)?
Answer: 295 nM

Question: What about the TGI (SNB-75 CNS) of the same molecule?
Answer: 795 nM

Question: What about the GI50 (SN12C renal) of the same molecule?
Answer: 307 nM

Question: What about the TGI (SN12C renal) of the same molecule?
Answer: 1060 nM

Question: And the GI50 (CAKI-1 renal)?
Answer: 226 nM

Question: What about the TGI (CAKI-1 renal) of the same molecule?
Answer: 744 nM

Question: And the GI50 (NCI-H23 lung)?
Answer: 245 nM

Question: And the TGI (NCI-H23 lung)?
Answer: 1000 nM

Question: And the GI50 (HT29 colon)?
Answer: 194 nM

Question: And the TGI (HT29 colon)?
Answer: 826 nM

Question: And the GI50 (SF-539 CNS)?
Answer: 171 nM

Question: What about the TGI (SF-539 CNS) of the same molecule?
Answer: 771 nM

Question: And the GI50 (OVCAR-8 ovarian)?
Answer: 675 nM

Question: What about the TGI (OVCAR-8 ovarian) of the same molecule?
Answer: 1540 nM

Question: And the GI50 (SW-620 colon)?
Answer: 177 nM

Question: And the TGI (SW-620 colon)?
Answer: 871 nM

Question: And the GI50 (NCI/ADR-RES ovarian)?
Answer: 1120 nM

Question: What about the TGI (NCI/ADR-RES ovarian) of the same molecule?
Answer: 3.1 µM

Question: What about the GI50 (SNB-19 CNS) of the same molecule?
Answer: 1210 nM

Question: What about the TGI (SNB-19 CNS) of the same molecule?
Answer: 3.24 µM

Question: And the GI50 (UACC-257 melanoma)?
Answer: 653 nM

Question: What about the TGI (UACC-257 melanoma) of the same molecule?
Answer: 1380 nM

Question: What about the GI50 (COLO 205 colon) of the same molecule?
Answer: 227 nM

Question: What about the TGI (COLO 205 colon) of the same molecule?
Answer: 828 nM

Question: What about the GI50 (TK-10 renal) of the same molecule?
Answer: 484 nM

Question: And the TGI (TK-10 renal)?
Answer: 1130 nM

Question: What about the GI50 (HCT-15 colon) of the same molecule?
Answer: 385 nM

Question: And the TGI (HCT-15 colon)?
Answer: 1400 nM

Question: What about the GI50 (BT-549 breast) of the same molecule?
Answer: 375 nM

Question: What about the TGI (BT-549 breast) of the same molecule?
Answer: 783 nM

Question: And the GI50 (HS 578T breast)?
Answer: 555 nM

Question: What about the TGI (HS 578T breast) of the same molecule?
Answer: 1590 nM

Question: What about the GI50 (NCI-H522 lung) of the same molecule?
Answer: 562 nM

Question: What about the TGI (NCI-H522 lung) of the same molecule?
Answer: 1320 nM

Question: And the GI50 (EKVX NSCLC)?
Answer: 623 nM

Question: And the TGI (EKVX NSCLC)?
Answer: 1350 nM

Question: And the GI50 (T-47D breast)?
Answer: 934 nM

Question: What about the TGI (T-47D breast) of the same molecule?
Answer: 2210 nM

Question: What about the GI50 (SK-MEL-2 melanoma) of the same molecule?
Answer: 431 nM

Question: And the TGI (SK-MEL-2 melanoma)?
Answer: 1120 nM

Question: And the GI50 (RXF 393 renal)?
Answer: 681 nM

Question: And the TGI (RXF 393 renal)?
Answer: 1440 nM

Question: What about the GI50 (OVCAR-3 ovarian) of the same molecule?
Answer: 591 nM

Question: And the TGI (OVCAR-3 ovarian)?
Answer: 1290 nM

Question: What about the GI50 (SK-MEL-5 melanoma) of the same molecule?
Answer: 716 nM

Question: And the TGI (SK-MEL-5 melanoma)?
Answer: 1400 nM

Question: And the GI50 (MDA-MB-231 breast)?
Answer: 174 nM

Question: And the TGI (MDA-MB-231 breast)?
Answer: 850 nM

Question: And the GI50 (HOP-62 NSCLC)?
Answer: 505 nM

Question: And the TGI (HOP-62 NSCLC)?
Answer: 1280 nM

Question: And the GI50 (OVCAR-5 ovarian)?
Answer: 381 nM

Question: What about the TGI (OVCAR-5 ovarian) of the same molecule?
Answer: 1210 nM

Question: What about the GI50 (UACC-62 melanoma) of the same molecule?
Answer: 488 nM

Question: And the TGI (UACC-62 melanoma)?
Answer: 1160 nM

Question: And the GI50 (MCF7 breast)?
Answer: 149 nM

Question: And the TGI (MCF7 breast)?
Answer: 752 nM

Question: What about the GI50 (KM12 colon) of the same molecule?
Answer: 5 nM

Question: And the TGI (KM12 colon)?
Answer: 725 nM

Question: What about the GI50 (SF-268 CNS) of the same molecule?
Answer: 593 nM

Question: And the TGI (SF-268 CNS)?
Answer: 1420 nM

Question: And the GI50 (OVCAR-4 ovarian)?
Answer: 490 nM

Question: What about the TGI (OVCAR-4 ovarian) of the same molecule?
Answer: 1340 nM
